Results reported in PubChem BioAssay AID248 (DTP/NCI, 2004).
“And” between values parts separate entries of the source, which are not always exact repeats. Equal entries are not always repeated. Inconclusive results and toxic doses are left out.

System: L1210 leukemia ip in BDF1 mice, survival T/C
Test: NCI In Vivo Anticancer Drug Screen. Data for tumor model L1210 Leukemia (intraperitoneal) in B6D2F1 (BDF1) mice
Conditions: endpoint: mean survival time, higher = longer survival
How it was run: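 Mice bearing the transplanted tumor received compound or vehicle. Survival of the treated group was divided by that of the vehicle-treated control group to give the ratio.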

[1] = dose: 6.25 mg/kg/injection, schedule: Q01DX009 (ip), vehicle: saline
[2] = dose: 12.5 mg/kg/injection, schedule: Q01DX009 (ip), vehicle: saline
[3] = dose: 25.0 mg/kg/injection, schedule: Q01DX009 (ip), vehicle: saline
[4] = dose: 50.0 mg/kg/injection, schedule: Q01DX001 (ip), vehicle: carboxymethylcellulose (CMC)
[5] = dose: 100.0 mg/kg/injection, schedule: Q01DX001 (ip), vehicle: carboxymethylcellulose (CMC)
[6] = dose: 200.0 mg/kg/injection, schedule: Q01DX001 (ip), vehicle: carboxymethylcellulose (CMC)
[7] = dose: 100.0 mg/kg/injection, schedule: Q01DX001 (ip), vehicle: saline
[8] = dose: 100.0 mg/kg/injection, schedule: Q01DX009 (ip), vehicle: saline
[9] = dose: 200.0 mg/kg/injection, schedule: Q01DX001 (ip), vehicle: saline
[10] = dose: 400.0 mg/kg/injection, schedule: Q01DX001 (ip), vehicle: saline
[11] = dose: 150.0 mg/kg/injection, schedule: Q01DX001 (ip), vehicle: saline

## O=C(CC(O)(C(F)(F)F)C(F)(F)F)c1ccc(Br)cc1
dose: 100.0 mg/kg/injection, schedule: Q04DX003 (ip), vehicle: other
  T/C: 98 % of control
dose: 200.0 mg/kg/injection, schedule: Q04DX003 (ip), vehicle: other
  T/C: 106 % of control
dose: 400.0 mg/kg/injection, schedule: Q04DX003 (ip), vehicle: other
  T/C: 93 % of control

## C=CCN(CC=C)CCN1CCN(CCCN2c3ccccc3Sc3ccc(C(F)(F)F)cc32)CC1
[1]
  T/C: 98 % of control
dose: 6.25 mg/kg/injection, schedule: Q04DX003 (ip), vehicle: saline
  T/C: 109 % of control
[2]
  T/C: 100 % of control
dose: 12.5 mg/kg/injection, schedule: Q04DX003 (ip), vehicle: saline
  T/C: 91 % of control
[3]
  T/C: 94 % of control
dose: 25.0 mg/kg/injection, schedule: Q04DX003 (ip), vehicle: saline
  T/C: 112 % of control
dose: 50.0 mg/kg/injection, schedule: Q04DX003 (ip), vehicle: saline
  T/C: 97 % of control
dose: 56.25 mg/kg/injection, schedule: Q01DX001 (ip), vehicle: saline
  T/C: 102 % of control
dose: 100.0 mg/kg/injection, schedule: Q04DX003 (ip), vehicle: saline
  T/C: 119 % of control
dose: 112.5 mg/kg/injection, schedule: Q01DX001 (ip), vehicle: saline
  T/C: 114 % of control

## COC(=O)C1=C(C)NC(=O)NC1c1ccc(N(CCCl)CCCl)c(OC)c1 (stereo unspecified)
dose: 3.0 mg/kg/injection, schedule: Q01DX009 (ip), vehicle: Klucel (hydroxypropylcellulose) (HPC)
  T/C: 115 % of control
dose: 6.0 mg/kg/injection, schedule: Q01DX009 (ip), vehicle: Klucel (hydroxypropylcellulose) (HPC)
  T/C: 117 % of control
dose: 12.0 mg/kg/injection, schedule: Q01DX009 (ip), vehicle: Klucel (hydroxypropylcellulose) (HPC)
  T/C: 112 % of control
dose: 100.0 mg/kg/injection, schedule: Q01DX001 (ip), vehicle: Klucel (hydroxypropylcellulose) (HPC)
  T/C: 109 % of control

## COc1cccc(CN(C)C)c1C(O)c1ccccc1 (stereo unspecified)
[4]
  T/C: 95 % of control
[5]
  T/C: 97 % of control
[6]
  T/C: 106 % of control

## CCCCOC(=O)NCCSC(=O)OCCCC
dose: 100.0 mg/kg/injection, schedule: Q04DX003 (ip), vehicle: saline with Tween-80
  T/C: 101 % of control
dose: 200.0 mg/kg/injection, schedule: Q04DX003 (ip), vehicle: saline with Tween-80
  T/C: 93 % of control
dose: 400.0 mg/kg/injection, schedule: Q04DX003 (ip), vehicle: saline with Tween-80
  T/C: 95 % of control

## Nc1ccccc1SC(CC(=O)c1ccccc1)c1ccc([N+](=O)[O-])cc1 (stereo unspecified)
dose: 100.0 mg/kg/injection, schedule: Q01DX005 (ip), vehicle: Klucel (hydroxypropylcellulose) (HPC)
  T/C: 101 % of control
dose: 100.0 mg/kg/injection, schedule: Q01DX009 (ip), vehicle: Klucel (hydroxypropylcellulose) (HPC)
  T/C: 97 % of control
dose: 200.0 mg/kg/injection, schedule: Q01DX009 (ip), vehicle: Klucel (hydroxypropylcellulose) (HPC)
  T/C: 91 % of control
dose: 400.0 mg/kg/injection, schedule: Q01DX005 (ip), vehicle: Klucel (hydroxypropylcellulose) (HPC)
  T/C: 86 % of control
dose: 400.0 mg/kg/injection, schedule: Q01DX009 (ip), vehicle: Klucel (hydroxypropylcellulose) (HPC)
  T/C: 97 % of control

## CCOC(O)(C=O)C1CCCN1 (stereo unspecified)
[7]
  T/C: 100 % of control
[8]
  T/C: 104 % of control
[9]
  T/C: 97 % of control
dose: 200.0 mg/kg/injection, schedule: Q01DX009 (ip), vehicle: saline
  T/C: 101 % of control
[10]
  T/C: 97 % of control
dose: 400.0 mg/kg/injection, schedule: Q01DX009 (ip), vehicle: saline
  T/C: 95 % of control

## COC(=O)c1cc(NS(=O)(=O)c2ccc(N)cc2)cc(C(=O)OC)c1
[7]
  T/C: 93 % of control
[9]
  T/C: 95 % of control
[10]
  T/C: 97 % of control

## O=C(Nc1ccc(C2=NCCN2)cc1)c1cccc(C(=O)Nc2ccc(C3=NCCN3)cc2)n1
dose: 15.0 mg/kg/injection, schedule: Q01DX Z (ip), vehicle: methylcellulose (MC)
  T/C: 96 % of control
dose: 30.0 mg/kg/injection, schedule: Q01DX Z (ip), vehicle: methylcellulose (MC)
  T/C: 93 % of control
dose: 60.0 mg/kg/injection, schedule: Q01DX Z (ip), vehicle: methylcellulose (MC)
  T/C: 104 % of control and 111 % of control
dose: 240.0 mg/kg/injection, schedule: Q01DX Z (ip), vehicle: methylcellulose (MC)
  T/C: 120 % of control
dose: 480.0 mg/kg/injection, schedule: Q01DX Z (ip), vehicle: methylcellulose (MC)
  T/C: 95 % of control

## NC(CO)CSCc1ccccc1 (stereo unspecified)
[1]
  T/C: 105 % of control
[2]
  T/C: 100 % of control
[3]
  T/C: 110 % of control and 113 % of control
dose: 50.0 mg/kg/injection, schedule: Q01DX009 (ip), vehicle: saline
  T/C: 100 % of control and 102 % of control
[8]
  T/C: 104 % of control

## CCCCOC(OCCCC)C(C)(C)CN(C)C
dose: 12.5 mg/kg/injection, schedule: Q04DX002 (ip), vehicle: saline
  T/C: 117 % of control
dose: 25.0 mg/kg/injection, schedule: Q04DX002 (ip), vehicle: saline
  T/C: 105 % of control
dose: 50.0 mg/kg/injection, schedule: Q04DX002 (ip), vehicle: saline
  T/C: 98 % of control

## O=C1c2ccccc2-c2cc(Cl)c([N+](=O)[O-])cc21
[4]
  T/C: 98 % of control
[5]
  T/C: 96 % of control
[6]
  T/C: 98 % of control
dose: 400.0 mg/kg/injection, schedule: Q01DX001 (ip), vehicle: carboxymethylcellulose (CMC)
  T/C: 91 % of control

## CC[n+]1cc(-c2ccc(NC(=O)/C=C\c3ccc(C(=O)Nc4ccc(-c5c[n+](CC)c(N)nc5N)cc4)cc3)cc2)c(N)nc1N
dose: 2.7 mg/kg/injection, schedule: Q01DX015 (ip), vehicle: saline
  T/C: 156 % of control
dose: 6.2 mg/kg/injection, schedule: Q01DX015 (ip), vehicle: saline
  T/C: 153 % of control
dose: 9.3 mg/kg/injection, schedule: Q01DX015 (ip), vehicle: saline
  T/C: 152 % of control
dose: 14.0 mg/kg/injection, schedule: Q01DX015 (ip), vehicle: saline
  T/C: 201 % of control
dose: 22.0 mg/kg/injection, schedule: Q01DX015 (ip), vehicle: saline
  T/C: 207 % of control
dose: 45.0 mg/kg/injection, schedule: Q01DX001 (ip), vehicle: saline
  T/C: 101 % of control
dose: 70.0 mg/kg/injection, schedule: Q01DX001 (ip), vehicle: saline
  T/C: 188 % of control
[7]
  T/C: 225 % of control and 248 % of control
[11]
  T/C: 107 % of control
[9]
  T/C: 105 % of control
dose: 155.0 micrograms/kg/injection, schedule: Q01DX009 (ip), vehicle: saline
  T/C: 121 % of control

## CC1OCC(C[N+](C)(C)C)O1 (stereo unspecified)
dose: 0.09 mg/kg/injection, schedule: Q04DX002 (ip), vehicle: saline
  T/C: 95 % of control
dose: 0.18 mg/kg/injection, schedule: Q04DX002 (ip), vehicle: saline
  T/C: 106 % of control
dose: 0.37 mg/kg/injection, schedule: Q04DX002 (ip), vehicle: saline
  T/C: 95 % of control
dose: 0.75 mg/kg/injection, schedule: Q04DX002 (ip), vehicle: saline
  T/C: 103 % of control and 109 % of control
dose: 1.5 mg/kg/injection, schedule: Q04DX002 (ip), vehicle: saline
  T/C: 100 % of control and 106 % of control

## CS(=O)(=O)OCCN(CCOS(C)(=O)=O)c1ccc(C(=O)O)cc1
dose: 42.0 mg/kg/injection, schedule: Q01DX015 (ip), vehicle: other
  T/C: 108 % of control
dose: 50.0 mg/kg/injection, schedule: Q01DX001 (ip), vehicle: other
  T/C: 115 % of control
dose: 66.0 mg/kg/injection, schedule: Q01DX015 (ip), vehicle: saline
  T/C: 120 % of control
dose: 72.0 mg/kg/injection, schedule: Q01DX015 (ip), vehicle: other
  T/C: 121 % of control
dose: 100.0 mg/kg/injection, schedule: Q01DX001 (ip), vehicle: other
  T/C: 115 % of control
dose: 100.0 mg/kg/injection, schedule: Q01DX015 (ip), vehicle: saline
  T/C: 122 % of control
dose: 120.0 mg/kg/injection, schedule: Q01DX015 (ip), vehicle: other
  T/C: 116 % of control
dose: 150.0 mg/kg/injection, schedule: Q01DX015 (ip), vehicle: saline
  T/C: 117 % of control
dose: 177.0 mg/kg/injection, schedule: Q01DX001 (ip), vehicle: other
  T/C: 118 % of control
dose: 177.0 mg/kg/injection, schedule: Q01DX001 (ip), vehicle: saline
  T/C: 117 % of control
dose: 177.0 mg/kg/injection, schedule: Q01DX015 (ip), vehicle: other
  T/C: 93 % of control
dose: 220.0 mg/kg/injection, schedule: Q01DX015 (ip), vehicle: saline
  T/C: 86 % of control
dose: 267.0 mg/kg/injection, schedule: Q01DX001 (ip), vehicle: other
  T/C: 118 % of control
dose: 267.0 mg/kg/injection, schedule: Q01DX001 (ip), vehicle: saline
  T/C: 110 % of control

## Brc1cccc2c1C[n+]1ccccc1-2
dose: 75.0 mg/kg/injection, schedule: Q01DX001 (ip), vehicle: saline
  T/C: 96 % of control
[11]
  T/C: 92 % of control
